We go through 1 molecule from patent US11440870B2, “Cannabidiolic acid esters compositions and uses thereof” (Yissum Research Development Company of the Hebrew …, priority 2017, dated 2022).

This experiment deals with anxiety-like responding in rats. The experiment is described as follows: Light-dark box emergence test after foot shock stress (anxiety-like responding). Format: in vivo, male Sprague-Dawley rats. The settings on record: WAY100635 i.p. 15 min before VEH; P<0.05. From the text: Animal procedures complied with the Canadian Council on Animal Care, and the protocols were approved by the Institutional Animal Care Committee at University of Guelph. Animal studies are reported in compliance with the ARRIVE guidelines (Kilkenny et al., 2010; McGrath and Lilley, 2015). A total of 200 näive male Sprague-Dawley rats, obtained from Charles River Laboratories (St Constant, Quebec), were used for all in vivo studies. Rats were individually housed (for acute nausea studies) or pair-housed [for anticipatory nausea and light-dark emergence studies] in home cages made of opaque white plastic (48×26×20 cm), containing bed-o-cob bedding from Harlan Laboratories, Inc. (Mississauga, Ontario), a brown paper towel, and Crinkl'Nest™ from The Andersons, Inc. (Maumee, Ohio). Additionally, in the home cage, rats were provided with a soft white paper container that was 14 cm long and 12 cm in diameter. All rats were subjected to an ambient temperature of 21° C. and a 12/12 h light-dark schedule (lights off at 07:00 h) and maintained on food (Highland Rat Chow [8640]) and water ad libitum. For the acute and anticipatory nausea studies, their body weights ranged from 263 to 329 g on the day of conditioning. For the light-dark emergence studies, their body weights ranged from 320 to 387 g on the day of test.
For the in vivo experiment 3, anxiolytic-like responding was evaluated using the light-dark emergence apparatus, which consisted of an opaque white plastic rectangular box that was divided into two compartments: a small (25 cm wide×20.5 cm long×20.5 cm high) enclosed dark box built of opaque black plastic with a door (8 cm wide×10 cm high) leading to a larger (39.5 cm long×25 cm wide) open lit box. The open lit box was illuminated by one lamp (with a 60 W bulb, 180 lux in the light chamber) positioned 115 cm above the center of the lit box. A video camera was mounted over the top of the light-dark box, and the video tapes were analyzed by the Ethovision software (Noldus Information Technology, Leesburg, Va., USA) for the duration of time spent in the light box for the 5 min test. For the foot shock (FS) session, the rats were placed in sound attenuating MED Associates fear conditioning chambers (St. Albans, Vt., USA). The 6 min FS session consisted of six 0.8 mA foot shocks delivered 1 min apart. Each 0.5 s shock was preceded by a 30 s auditory tone (90 Db, 5000 Hz) as described by Bluett et al. (2014).
The effect of CBDA and HU-580 on anxiety-like responding was evaluated using the light-dark box emergence test following either foot shock stress or no foot shock (No FS) stress. […]

With `COc1ccccc1N1CCN(CCN(C(=O)C2CCCCC2)c2ccccn2)CC1` [WAY100635, reference compound], the “Time spent in the light box after foot shock (FS) stress vs No FS” value is listed as “spent less time in the light box following FS stress than following No FS stress”.
